Some results are limits rather than exact numbers.

In general, MIC refers to the smallest concentration in the dilution series that meets the test's criterion for growth inhibition.

In experiment [1] the test system is Septoria tritici (ATCC 26517). Kind of experiment: Minimum Inhibitory Concentration (MIC) vs. Septoria tritici. The class given is cell-based. As to conditions: Zymoseptoria tritici, ATCC26517, 168 h; S. tritici ATCC 26517; 50% growth reduction; 7 days at 22 °C; read-out: Septoria Rating (MIC). How it is done:
C. Minimum Inhibitory Concentration (MIC) vs. Septoria Tritici Compounds were assessed for their ability to inhibit the growth of a common strain of the fungal plant pathogen Septoria tritici (ATCC 26517) using a procedure based on a Clinical and Laboratory Standards Institute (CLSI) microdilution assay protocol for filamentous fungi. Stock solutions of the test compounds and standards were prepared in DMSO at 6400 μg/mL. Each stock solution was used to prepare a 2-fold dilution series ranging from 16 to 0.016 μg/mL (total of 11 compound concentrations) in RPMI-1640 (Roswell Park Memorial Institute) medium containing 3-(N-morpholino)propanesulfonic acid (MOPS) buffer and 2% DMSO. A 100 μL aliquot of the dilutions was added to columns 1 (16 μg/mL compound) through 11 (0.016 μg/mL compound) of a 96-well microtiter plate. This format was replicated in a second row of the microtiter plate. Thus, each microtiter plate could include 11 concentrations of four test or control compounds replicated twice. A 100 μL aliquot of RPMI-1640/MOPS/2% DMSO medium was added to column 12 (no compound control) of the microtiter plate. A fresh culture of S. tritici was used to prepare a solution of approximately 5×10^4 colony-forming units per milliliter (cfu/mL) in RPMI/MOPS medium without DMSO. A 100 μL aliquot of this solution was added to all 96 wells in the microtiter plate. […]

Experiment [2] relates to Puccinia recondita tritici = Puccinia triticina (PUCCRT). Kind of experiment: Fungicidal activity vs. leaf rust on wheat plants. The class given is in vivo. As to conditions: wheat (Yuma) sprayed at 50 ppm, inoculated the following day, rated 7-9 days later, read-out: Puccinia Rating (% Disease Control @ 50 ppm). In short, it runs like this: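 Wheat seedlings sprayed to wet with compound at 50 ppm in 10% acetone/90% Triton X100 water (~1500 L/ha), then inoculated next day with P. triticina spores and held humid overnight.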

`CC#CCOc1ccc(C(F)(F)C(O)(Cn2cnnn2)c2ccc(F)cc2F)nc1` (stereo not drawn) [Compound 32, 1-(5-(But-2-yn-1-yloxy)pyridin-2-yl)-2-(2,4-difluorophenyl)-1,1-difluoro-3-(1H-tetrazol-1-yl)propan-2-ol]: the minimal inhibitory concentration (MIC) in experiment [1] is ≤ 0.5 µg/mL.
For `OC(Cn1cnnn1)(c1ccc(F)cc1F)C(F)(F)c1ccc(OCc2ccccc2)cn1` (stereo not drawn) [Compound 30, 1-(5-(Benzyloxy)pyridin-2-yl)-2-(2,4-difluorophenyl)-1,1-difluoro-3-(1H-tetrazol-1-yl)propan-2-ol], the minimal inhibitory concentration (MIC) in experiment [1] is ≤ 0.5 µg/mL. Also, in experiment [2], the pest or weed control at 50 ppm was 80 to 100%.

Values taken from patent US8796001B2, “Metalloenzyme inhibitor compounds” (Viamet Pharmaceuticals, Inc., priority 2011, dated 2014).
